Source: patent publication US12221436B2, “Anthranilamides, their use as insecticide and processes for preparing the same” (PI INDUSTRIES LTD., priority 2018, dated 2025)

How the values were obtained:
Format in all cases: in vivo
Myzus persicae = assay: Example E: Myzus persicae, leaf dip method (capsicum leaves); settings: foliar, third instar nymphs, 72 h after release, dead and moribund combined, read-out: percent mortality
Procedure: (§1) Test solutions were prepared according to the procedure described herein below (500 PPM):
(§2) • 1. Eppendorf Vortex mixer (ThermoMixer C) and 1.5 mL Eppendorf tubes • 2. Beaker—100 mL • 3. Micro-pipette Reagents: • 1. Surfactant Solution • 2. De-mineralized (DM) Water Procedure: • 1. Weigh 10 mg of the compound of the present invention to be tested in an Eppendorf Tube. • 2. Add 200 mg of the Surfactant Solution into the tube. • 3. Fix the tube in Eppendorf Vortex mixer and start vortexing at 2000 rpm. • 4. Mix on Vortex mixer for 30 min. After 30 min, observe the sample over a microscope at 400× resolution. • 5. Add 1.0 mL DM water into the tube, close the cap, shake the tube thoroughly and transfer the contents, along with the beads, into a beaker. • 6. To rinse the tube, add another 1.0 mL of DM water into the tube, close the cap, shake well and transfer this into the same beaker. • 7. Repeat […] one more time so that the tube is rinsed well and all the compound of the present invention is transferred to the beaker. • 8. Add 16.8 mL of DM water into the beaker and stir well. • 9. Immediately use this sample for biological testing. • 10. Further dilutions can be prepared by taking appropriate quantity of the aliquot of Step 8, immediately after stirring, and diluting as per requirement. The sample solution must be well mixed just before biological testing.
Leaf dip method was used for screening, wherein the required quantity of the compounds were weighed and dissolved in the test solution into the tube and vortex at 2000 rpm with Zirconia beads for 90 min and for proper mixing, then mixed with 0.01% Triton-X solution to get the desired test concentration. Capsicum leaves were dipped in the solution for 10 seconds, shade dried for 20 min and then leaves were kept in glass units with petiole dipped in water. Known numbers of third instar nymphs were released and were kept in the plant growth chamber at a temperature of 25° C. and Relative Humidity of 70%. Observations on dead, moribund and live nymphs were recorded at 72 h after the release. Percent mortality was calculated by combining dead and moribund nymphs. The following compound numbers

Plutella xylostella = assay: whole plant or invertebrate; settings: in Brassica oleracea, foliar, second instar larvae, 72 h after release, dead and moribund combined, read-out: percent mortality
Procedure: as §1, §2
Leaf dip method was used for screening, wherein the required quantity of the compounds were weighed and dissolved in the test solution into the tube and vortex at 2000 rpm with Zirconia beads for 90 min for proper mixing, then mixed with 0.01% Triton-X solution to get the desired test concentration. and Cabbage leaves were dipped in the solution for 10 seconds, shade dried for 20 min and then transferred to bioassay trays. Single second instar larvae were released into each cell and the tray was covered with lid. The bio-assay trays were kept under laboratory conditions at a temperature of 25° C. and Relative Humidity of 70%. Observations on dead, moribund and live larvae were recorded at 72 h after the release. Percent mortality was calculated by combining dead and moribund larvae. The following compound numbers

Spodoptera litura = assay: Example B: Spodoptera litura, diet incorporation method; settings: third instar larvae, 96 h after release, dead and moribund combined, read-out: percent mortality
Procedure: as §1, §2
(§3) Diet incorporation method was used, in which semi-synthetic diet was incorporated into the test solutions when the temperature is approximately 50° C. in the bioassay containers and stirred thoroughly for properly mixing and then was allowed to cool for 30 min. The solidified diet was cut into equal pieces, and then each piece was transferred in one cell in Bio-assay trays. A single third instar starved larva was released into each of these cells of bioassay trays and the tray was covered with the lid. The bio-assay trays were kept under laboratory conditions at a temperature of 25° C. and Relative Humidity of 70%. Observations on dead, moribund and live larvae were recorded at 96 h after the release of larvae. Percent mortality was calculated by combining dead and moribund larvae. The following compound numbers

Helicoverpa armigera = assay: Example A: Helicoverpa armigera, diet incorporation method; settings: third instar larvae, 96 h after release, dead and moribund combined, read-out: percent mortality
Procedure: as §1, §2
as §3, with “which the” for “which”, “solution” for “solutions”

Compound | mortality at 300 ppm (Myzus persicae) [%] | mortality at 300 ppm (Plutella xylostella) [%] | mortality at 300 ppm (Spodoptera litura) [%] | mortality at 300 ppm (Helicoverpa armigera) [%]
CC(C)(C)NC(=O)c1cc(Cl)cc(Br)c1NC(=O)c1cc(OC2CSC2)nn1-c1ncccc1Cl [Compound 45, N-(2-bromo-6-(tert-butylcarbamoyl)-4-chlorophenyl)-1-(3-chloropyridin-2-yl)-3-(thietan-3-yloxy)-1H-pyrazole-5-carboxamide] | > 50 | – | – | –
Cc1cc2ccnn2c(C(=O)NCC2CC2)c1NC(=O)c1cc(N2CC(F)(F)C2)nn1-c1ncccc1Cl [Compound 78, 6-(1-(3-chloropyridin-2-yl)-3-(3,3-difluoroazetidin-1-yl)-1H-pyrazole-5-carboxamido)-N-(cyclopropylmethyl)-5-methylpyrazolo[1,5-a]pyridine-7-carboxamide] | – | > 70 | > 70 | > 70
CNC(=O)c1c(NC(=O)c2cc(N3CC(F)(F)C3)nn2-c2ncccc2Cl)c(C)cc2ccnn12 [Compound 79, 6-(1-(3-chloropyridin-2-yl)-3-(3,3-difluoroazetidin-1-yl)-1H-pyrazole-5-carboxamido)-N,5-dimethylpyrazolo[1,5-a]pyridine-7-carboxamide] | – | > 70 | > 70 | > 70
Cc1cc2ccnn2c(C(=O)NCC2CC2)c1NC(=O)c1cc(OC2CSC2)nn1-c1ncccc1Cl [Compound 80, 6-(1-(3-chloropyridin-2-yl)-3-(thietan-3-yloxy)-1H-pyrazole-5-carboxamido)-N-(cyclopropylmethyl)-5-methylpyrazolo[1,5-a]pyridine-7-carboxamide] | – | > 70 | > 70 | > 70
CCNC(=O)c1c(NC(=O)c2cc(N3CC(F)(F)C3)nn2-c2ncccc2Cl)c(C)cc2ccnn12 [Compound 84, 6-(1-(3-chloropyridin-2-yl)-3-(3,3-difluoroazetidin-1-yl)-1H-pyrazole-5-carboxamido)-N-ethyl-5-methylpyrazolo[1,5-a]pyridine-7-carboxamide] | – | – | > 70 | –
CONC(=O)c1c(NC(=O)c2cc(N3CC(F)(F)C3)nn2-c2ncccc2Cl)c(C)cc2ccnn12 [Compound 85, 6-(1-(3-chloropyridin-2-yl)-3-(3,3-difluoroazetidin-1-yl)-1H-pyrazole-5-carboxamido)-N-methoxy-5-methylpyrazolo[1,5-a]pyridine-7-carboxamide] | – | > 70 | – | > 70
C=CCNC(=O)c1c(NC(=O)c2cc(N3CC(F)(F)C3)nn2-c2ncccc2Cl)c(C)cc2ccnn12 [Compound 87, N-allyl-6-(1-(3-chloropyridin-2-yl)-3-(3,3-difluoroazetidin-1-yl)-1H-pyrazole-5-carboxamido)-5-methylpyrazolo[1,5-a]pyridine-7-carboxamide] | – | – | > 70 | –
CONC(=O)c1cc(Cl)cc(Br)c1NC(=O)c1cc(OC2CSC2)nn1-c1ncccc1Cl [Compound 91, N-(2-bromo-4-chloro-6-(methoxycarbamoyl)phenyl)-1-(3-chloropyridin-2-yl)-3-(thietan-3-yloxy)-1H-pyrazole-5-carboxamide] | > 50 | – | – | –
C=CCNC(=O)c1cc(Cl)cc(Br)c1NC(=O)c1cc(OC2CSC2)nn1-c1ncccc1Cl [Compound 92, N-(2-(allylcarbamoyl)-6-bromo-4-chlorophenyl)-1-(3-chloropyridin-2-yl)-3-(thietan-3-yloxy)-1H-pyrazole-5-carboxamide] | > 50 | – | – | –
C=CCNC(=O)c1cc(Cl)cc(C)c1NC(=O)c1cc(OC2CSC2)nn1-c1ncccc1Cl [Compound 98, N-(2-(allylcarbamoyl)-4-chloro-6-methylphenyl)-1-(3-chloropyridin-2-yl)-3-(thietan-3-yloxy)-1H-pyrazole-5-carboxamide] | > 50 | – | – | –
CCCNC(=O)c1c(NC(=O)c2cc(OC3CSC3)nn2-c2ncccc2Cl)c(C)cc2ccnn12 [Compound 108, 6-(1-(3-chloropyridin-2-yl)-3-(thietan-3-yloxy)-1H-pyrazole-5-carboxamido)-5-methyl-N-propylpyrazolo[1,5-a]pyridine-7-carboxamide] | – | > 70 | – | –
Cc1cc(Cl)cc(C(=O)NC(C)C)c1NC(=O)c1cc(OC2C[S+]([O-])C2)nn1-c1ncccc1Cl (stereo not drawn) [Compound 117, N-(4-chloro-2-(isopropylcarbamoyl)-6-methylphenyl)-1-(3-chloropyridin-2-yl)-3-((1-oxidothietan-3-yl)oxy)-1H-pyrazole-5-carboxamide] | > 50 | – | – | –
Cc1cc(Cl)cc(C(=O)NC2CC2)c1NC(=O)c1cc(OC2C[S+]([O-])C2)nn1-c1ncccc1Cl (stereo not drawn) [Compound 128, N-(4-chloro-2-(cyclopropylcarbamoyl)-6-methylphenyl)-1-(3-chloropyridin-2-yl)-3-((1-oxidothietan-3-yl)oxy)-1H-pyrazole-5-carboxamide] | > 50 | – | – | –
Cc1cc(Cl)cc(C(=O)NCC2CC2)c1NC(=O)c1cc(OC2C[S+]([O-])C2)nn1-c1ncccc1Cl (stereo not drawn) [Compound 129, N-(4-chloro-2-((cyclopropylmethyl)carbamoyl)-6-methylphenyl)-1-(3-chloropyridin-2-yl)-3-((1-oxidothietan-3-yl)oxy)-1H-pyrazole-5-carboxamide] | > 50 | – | – | –
O=C(NCC(F)(F)F)c1cc(Cl)cc(Cl)c1NC(=O)c1cc(OC2CSC2)nn1-c1ncccc1Cl [Compound 132, 1-(3-chloropyridin-2-yl)-N-(2,4-dichloro-6-((2,2,2-trifluoroethyl)carbamoyl)phenyl)-3-(thietan-3-yloxy)-1H-pyrazole-5-carboxamide] | > 50 | – | – | –
CCNC(=O)c1c(NC(=O)c2cc(OC3CSC3)nn2-c2ncccc2Cl)c(C)cc2ccnn12 [Compound 137, 6-(1-(3-chloropyridin-2-yl)-3-(thietan-3-yloxy)-1H-pyrazole-5-carboxamido)-N-ethyl-5-methylpyrazolo[1,5-a]pyridine-7-carboxamide] | – | > 70 | – | –
Cc1cc2ccnn2c(C(=O)NC2CC2)c1NC(=O)c1cc(OC2CSC2)nn1-c1ncccc1Cl [Compound 138, 6-(1-(3-chloropyridin-2-yl)-3-(thietan-3-yloxy)-1H-pyrazole-5-carboxamido)-N-cyclopropyl-5-methylpyrazolo[1,5-a]pyridine-7-carboxamide] | – | – | > 70 | –
Cc1cc2ccnn2c(C(=O)NC(C)C2CC2)c1NC(=O)c1cc(OC2CSC2)nn1-c1ncccc1Cl (stereo not drawn) [Compound 139, 6-(1-(3-chloropyridin-2-yl)-3-(thietan-3-yloxy)-1H-pyrazole-5-carboxamido)-N-(1-cyclopropylethyl)-5-methylpyrazolo[1,5-a]pyridine-7-carboxamide] | – | – | > 70 | > 70
COCCNC(=O)c1c(NC(=O)c2cc(OC3CSC3)nn2-c2ncccc2Cl)c(C)cc2ccnn12 [Compound 156, 6-(1-(3-chloropyridin-2-yl)-3-(thietan-3-yloxy)-1H-pyrazole-5-carboxamido)-N-(2-methoxyethyl)-5-methylpyrazolo[1,5-a]pyridine-7-carboxamide] | – | – | – | > 70
